The target of the assay is MetAP-2 (Homo sapiens, UniProt P50579). Put plainly: MetAP-2 activity measurement (coupled enzymatic reactions, substrate Met-Arg-Ser, photometric at 450 nm). The class given is biochemical. The following applies: read-out: IC50 enzyme (Inhibition of MetAP-2). Here is the method: MetAP-2 Activity Measurement
The MetAP-2 activity is determined by coupling enzymatic reactions. The tripeptide Met-Arg-Ser (MAS) is employed as substrate. The methionine liberated is firstly converted into Metox and H2O2 by L-aminooxidase (AAO). In the second step, the peroxidase (POD) with the aid of the H2O2 catalyses the oxidation of the leukodye dianisidine to dianisidineox, the increase of which is detected photometrically at 450 nm.
MetAP-2 activity can be recorded continuously as kinetics. The reaction scheme illustrates that one mol of dianisidineox is formed per mol of methionene. The MetAP-2 enzyme activity can therefore be calculated directly as Δ absorption per time unit. […] of the MetAP-2 activity (mol of Met/time unit) is possible with the aid of the dianisidineox extinction coefficient.
The change in extinction per time unit is depicted graphically and a slope calculation is carried out in the visually linear region of the reaction.

MetAP-2, sequence (P50579 whole entry, species assumed): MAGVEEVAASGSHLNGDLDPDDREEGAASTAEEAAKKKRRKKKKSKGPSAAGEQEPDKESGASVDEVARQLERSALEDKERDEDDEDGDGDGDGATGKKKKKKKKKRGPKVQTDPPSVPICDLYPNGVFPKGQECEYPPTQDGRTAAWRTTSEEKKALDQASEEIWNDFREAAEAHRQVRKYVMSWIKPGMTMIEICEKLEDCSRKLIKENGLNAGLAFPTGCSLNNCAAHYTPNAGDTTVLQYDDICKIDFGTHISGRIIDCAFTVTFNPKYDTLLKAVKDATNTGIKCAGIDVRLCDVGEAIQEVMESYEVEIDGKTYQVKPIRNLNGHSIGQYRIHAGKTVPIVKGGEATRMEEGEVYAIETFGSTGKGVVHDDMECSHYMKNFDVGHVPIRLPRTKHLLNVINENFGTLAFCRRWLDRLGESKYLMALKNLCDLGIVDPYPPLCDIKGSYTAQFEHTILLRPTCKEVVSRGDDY

As usually defined, the IC50 is the concentration that inhibits the measured activity by half. Regarding `O=C(NCC1CC(O)C1)c1cc(OC[C@H]2CCCN2c2ncnc3[nH]cnc23)c2ccccc2n1` (stereo partly drawn) [A88, N-(3-Hydroxycyclobutylmethyl)-4-[(R)-1-(9H-purin-6-yl)pyrrolidin-2-ylmethoxy]quinoline-2-carboxamide], the IC50 fell in the range of 0.01 to 1 µM.
In the case of `Cc1cc2c(OC[C@H]3CCCN3c3ncnc4[nH]cnc34)cccc2cn1` [A89, 3-Methyl-5-[(R)-1-(9H-purin-6-yl)pyrrolidin-2-yl-methoxy]isoquinoline] it was 0.01 to 1 µM.
The result for `CC(=O)N(CCN1CCOCC1)Cc1ccc(OC[C@H]2CCCN2c2ncnc3[nH]cnc23)c2ccccc12` [A92, N-(2-Morpholin-4-ylethyl)-N-{4-[(R)-1-(9H-purin-6-yl)pyrrolidin-2-ylmethoxy]naphthalen-1-yl-methyl}acetamide] reads 0.01 to 1 µM.
The result for `c1ccc2c(OC[C@H]3CCCN3c3ncnc4[nH]cnc34)ccnc2c1` [A93, 4-[(R)-1-(9H-Purin-6-yl)pyrrolidin-2-yl-methoxy]quinoline] reads 0.01 to 1 µM.
With `O=CN(CCN1CCOCC1)Cc1ccc(OC[C@H]2CCCN2c2ncnc3[nH]cnc23)c2ccccc12` [A94, N-(2-Morpholin-4-ylethyl)-N-{4-[(R)-1-(9H-purin-6-yl)pyrrolidin-2-ylmethoxy]naphthalen-1-yl-methyl}formamide], the IC50 fell in the range of 0.01 to 1 µM.
The result for `c1ccc2c(OC[C@H]3CCCN3c3ncnc4[nH]cnc34)ccc(CNCCCN3CCOCC3)c2c1` [A95, (3-Morpholin-4-ylpropyl)-{4-[(R)-1-(9H-purin-6-yl)pyrrolidin-2-ylmethoxy]naphthalen-1-yl-methyl}amine] reads 0.01 to 1 µM; that for `O=C1c2cccc(OC[C@H]3CCCN3c3ncnc4[nH]cnc34)c2CC[C@@H]1Cc1c[nH]cn1` [A96, (R)-2-(1H-Imidazol-4-ylmethyl)-5-[(R)-1-(9H-purin-6-yl)pyrrolidin-ylmethoxy]-3,4-dihydro-2H-naphthalen-1-one], 0.01 to 1 µM; that for `O=C1c2cccc(OC[C@H]3CCCN3c3ncnc4[nH]cnc34)c2CC[C@H]1Cc1c[nH]cn1` [A97, (S)-2-(1H-Imidazol-4-y!methyl)-5-[(R)-1-(9H-purin-6-yl)pyrrolidin-2-ylmethoxy]-3,4-dihydro-2H-naphthalen-1-one], 0.01 to 1 µM.
On to `CC(=O)N(CCN1CCCCC1)Cc1ccc(OC[C@H]2CCCN2c2ncnc3[nH]cnc23)c2ccccc12` [A98, N-(2-Piperidin-1-ylethyl)-N-{4-[(R)-1-(9H-purin-6-yl)pyrrolidin-2-ylmethoxy]naphthalen-1-yl-methyl]acetamide], for which the IC50 fell in the range of 0.01 to 1 µM.
In the case of `CC(=O)N(Cc1ccn(C)n1)Cc1ccc(OC[C@H]2CCCN2c2ncnc3[nH]cnc23)c2ccccc12` [A99, N-(1-Methyl-1H-pyrazol-3-ylmethyl)-N-{4-[(R)-1-(9H-purin-6-yl)pyrrolidin-2-ylmethoxy]-naphthalen-1-ylmethyl}acetamide], the IC50 was in the range of 0.01 to 1 µM.
In the case of `CC(=O)N(Cc1ccc(OC[C@H]2CCCN2c2ncnc3[nH]cnc23)c2ccccc12)CC(O)CO` (stereo partly drawn) [A100, N-(2,3-Dihydroxypropyl)-N-{4-[(R)-1-(9H-purin-6-yl)pyrrolidin-2-ylmethoxy]naphthalen-1-yl-methyl}acetamide], the 50% inhibitory concentration (IC50) fell in the range of 0.01 to 1 µM.
Turning to `O=CN(CCN1CCCCC1)Cc1ccc(OC[C@H]2CCCN2c2ncnc3[nH]cnc23)c2ccccc12` [A101, N-(2-Piperidin-1-ylethyl)-N-{4-[(R)-1-(9H-purin-6-yl)pyrrolidin-2-ylmethoxy]naphthalen-1-yl-methyl}formamide], the 50% inhibitory concentration (IC50) fell in the range of 0.01 to 1 µM.
Regarding `Cn1ccc(CN(C=O)Cc2ccc(OC[C@H]3CCCN3c3ncnc4[nH]cnc34)c3ccccc23)n1` [A102, N-(1-Methyl-1H-pyrazol-3-ylmethyl)-N-{4-[(R)-1-(9H-purin-6-yl)pyrrolidin-2-ylmethoxy]-naphthalen-1-ylmethyl}formamide], the IC50 was in the range of 0.01 to 1 µM.
`c1ccc(-c2nc3ccccc3s2)c(OC[C@H]2CCCN2c2ncnc3[nH]cnc23)c1` [A103, 6-[(R)-2-(2-Benzothiazol-2-ylphenoxymethyl)-pyrrolidin-1-yl]-9H-purine]: the IC50 is 1 to 10 µM.
As for `c1cc(OC[C@H]2CCCN2c2ncnc3[nH]cnc23)c2nccn2c1` [A104, 6-[(R)-2-(Imidazo[1,2-a]pyridin-8-yloxymethyl)-pyrrolidin-1-yl]-9H-purine], the IC50 fell in the range of 1 to 10 µM.
On to `FC(F)(F)c1cc(OC[C@H]2CCCN2c2ncnc3[nH]cnc23)c2cc(Cl)ccc2n1` [A105, 6-Chloro-4-[(R)-1-(9H-purin-6-yl)pyrrolidin-2-yl-methoxy]-2-trifluoromethylquinoline], for which the concentration for half-maximal inhibition (IC50) lay within 0.01 to 1 µM.
As to `c1ccc(CN2CCN(c3ccc4cccc(OC[C@H]5CCCN5c5ncnc6[nH]cnc56)c4c3)CC2)cc1` [A106, 6-{(R)-2-[7-(4-Benzylpiperazin-1-yl)naphthalen-1-yloxymethyl]pyrrolidin-1-yI}-9H-purine], the IC50 was more than 10 µM.
In the case of `CN(C)c1ccc2cc(S(=O)(=O)O)cc(OC[C@H]3CCCN3c3ncnc4[nH]cnc34)c2c1` [A107, 6-Dimethylamino-4-[(R)-1-(9H-purin-6-yl)-pyrrolidin-2-ylmethoxy]naphthalene-2-sulfonic acid], the IC50 is 1 to 10 µM.
In the case of `c1ccc2c(NC[C@H]3CCCN3c3ncnc4[nH]cnc34)cccc2c1` [A108, Naphthalen-1-yl[(R)-1-(9H-purin-6-yl)pyrrolidin-2-ylmethyl]amine] it was more than 10 µM; in that of `c1ccc2c(OC[C@H]3CCCN3c3ncnc4[nH]cnc34)nccc2c1` [A109, 1-[(R)-1-(9H-Purin-6-yl)pyrrolidin-2-yl-methoxy]isoquinoline], 0.01 to 1 µM.
`CCCN1CCN(Cc2ccc(OC[C@H]3CCCN3c3ncnc4[nH]cnc34)c3ccccc23)CC1` [A110, 6-{(R)-2-[4-(4-Propylpiperazin-1-ylmethyl)-naphthalen-1-yloxymethyl]pyrrolidin-1-yl}-9H-purine]: the IC50 was in the range of 0.01 to 1 µM.
For `CC(=O)N1CCN(Cc2ccc(OC[C@H]3CCCN3c3ncnc4[nH]cnc34)c3ccccc23)CC1` [A111, 1-(4-{4-[(R)-1-(9H-Purin-6-yl)pyrrolidin-2-yl-methoxy]naphthalen-1-ylmethyl}piperazin-1-yl)-ethanone], the IC50 lay within 0.01 to 1 µM.
In the case of `c1ccc2c(OC[C@H]3CCCN3c3ncnc4[nH]cnc34)ccc(CN3CCN(C4CCCC4)CC3)c2c1` [A112, 6-{(R)-2-[4-(4-Cyclopentylpiperazin-1-yl-methyl)naphthalen-1-yloxymethyl]pyrrolidin-1-yl}-9H-purine], the IC50 is 0.01 to 1 µM.
The result for `COCCN1CCN(Cc2ccc(OC[C@H]3CCCN3c3ncnc4[nH]cnc34)c3ccccc23)CC1` [A113, 6-((R)-2-{4-[4-(2-Methoxyethyl)piperazin-1-yl-methyl]naphthalen-1-yloxymethyl}pyrrolidin-1-yl)-9H-purine] reads 0.01 to 1 µM; that for `OC[C@H]1CCCN1Cc1ccc(OC[C@H]2CCCN2c2ncnc3[nH]cnc23)c2ccccc12` [A114, ((R)-1-{4-[(R)-1-(9H-Purin-6-yl)pyrrolidin-2-yl-methoxy]naphthalen-1-ylmethyl}pyrrolidin-2-yl)-methanol], 0.01 to 1 µM; that for `c1cc(OC[C@H]2CCCN2c2ncnc3[nH]cnc23)c2cc(N3CCNCC3)ccc2c1` [A115, 6-[(R)-2-(7-Piperazin-1-ylnaphthalen-1-yl-oxymethyl)pyrrolidin-1-yl]-9H-purine], 0.01 to 1 µM.
